# Results as given in ChEMBL document CHEMBL5233277, “Oxidative Metabolism as a Modulator of Kratom's Biological Actions” (J Med Chem, 2021).
# The source made the active and inactive calls. No cut-off for these calls is given here.
# How the values were obtained:
# [1] = Drug metabolism in C57BL/6J mouse liver microsomes assessed as mitragynine pseudoindoxyl formation at 1 uM incubated for 60 mins in presence of ketoconazole by LC-MS/MS analysis; format: ADME, Microsome; conditions: 1 h
# [2] = Drug metabolism in C57BL/6J mouse plasma assessed as 3-dehydromitragynine formation at ED80, po; format: ADME, cell-free
# [3] = test system: Mus musculus; experiment: Antinociceptive activity in po dosed 129Sv6 mouse model assessed as time required for peak effect at ED50 by radiant heat tail flick assay; format: functional
# [4] = Drug metabolism in C57BL/6J mouse plasma assessed as mitragynine pseudoindoxyl formation at 30 mg/kg, po measured after 8 hrs by LC-MS/MS analysis; format: ADME, organism-based; conditions: in vivo
# [5] = test system: Mus musculus; experiment: Antinociceptive activity in po dosed C57BL/6J mouse model assessed as time required for peak effect at ED50 by radiant heat tail flick assay; format: functional
# [6] = Drug metabolism in human liver microsomes assessed as 3-dehydromitragynine formation at 1 uM incubated for 60 mins in absence of NADPH by LC-MS/MS analysis; format: ADME, Microsome; conditions: 1 h
# [7] = test system: Mus musculus; experiment: Antinociceptive activity in sc dosed C57BL/6J mouse model assessed as time required for peak effect at ED50 by radiant heat tail flick assay; format: functional
# [8] = Stability in C57BL/6J mouse liver microsomes assessed as half life at 1 uM incubated for 60 mins by LC-MS/MS analysis; format: ADME, Microsome; conditions: 1 h
# [9] = Drug metabolism in 129Sv6 mouse liver microsomes assessed as 3-dehydromitragynine formation at 1 uM incubated for 60 mins in presence of ketoconazole by LC-MS/MS analysis; format: ADME, Microsome; conditions: 1 h
# [10] = Drug metabolism in 129Sv6 mouse brain assessed as 3-dehydromitragynine formation at ED80, po; format: ADME, tissue-based
# [11] = Drug metabolism in human liver microsomes assessed as compound depletion at 1 uM incubated for 60 mins in presence of NADPH by LC-MS/MS analysis; format: ADME, Microsome; conditions: 1 h
# [12] = Drug metabolism in 129Sv6 mouse plasma assessed as 3-dehydromitragynine formation at ED80, po; format: ADME, cell-free
# [13] = target: T1, Cytochrome P450 3A (Mus musculus, UniProt O09158+Q64464+Q64481+Q9JMA7); experiment: Metabolic stability in 129Sv6 mouse liver microsomes assessed as CYP3A-mediated decomposition by measuring half life at 1 uM incubated for 60 mins in presence of ketoconazole by LC-MS/MS analysis; format: ADME, Microsome; conditions: 1 h
# [14] = Drug metabolism in C57BL/6J mouse liver microsomes assessed as 3-dehydromitragynine formation at 1 uM incubated for 60 mins in presence of ketoconazole by LC-MS/MS analysis; format: ADME, Microsome; conditions: 1 h
# [15] = Stability in human liver microsomes assessed as half life at 1 uM incubated for 60 mins by LC-MS/MS analysis; format: ADME, Microsome; conditions: 1 h
# [16] = Drug concentration in C57BL/6J mouse brain at 30 mg/kg, po measured after 20 mins by LC-MS/MS analysis; format: ADME, organism-based; conditions: read-out: Ct
# [17] = Drug metabolism in human S9 fractions assessed as 3-dehydromitragynine formation at 1 uM incubated for 60 mins in presence of NADPH by LC-MS/MS analysis; format: ADME, subcellular, S9 fraction; conditions: s9, 1 h
# [18] = Drug metabolism in human S9 fraction assessed as compound depletion at 1 uM incubated for 60 mins in presence of NADPH by LC-MS/MS analysis; format: ADME, subcellular; conditions: s9, 1 h
# [19] = Drug metabolism in 129Sv6 mouse liver microsomes assessed as mitragynine pseudoindoxyl formation at 1 uM incubated for 60 mins in presence of ketoconazole by LC-MS/MS analysis; format: ADME, Microsome; conditions: 1 h
# [20] = Drug metabolism in 129Sv6 mouse plasma assessed as mitragynine pseudoindoxyl formation at 10 mg/kg, po measured after 15 mins by LC-MS/MS analysis; format: ADME, organism-based; conditions: in vivo, 0.25 h
# [21] = Drug metabolism in 129Sv6 mouse liver microsomes assessed as mitragynine pseudoindoxyl formation at 1 uM incubated for 60 mins by LC-MS/MS analysis; format: ADME, Microsome; conditions: 1 h
# [22] = test system: Mus musculus; experiment: Antinociceptive activity in MOR knock out C57BL/6J mouse at 45 mg/kg, po measured after 20 mins; format: functional, organism-based
# [23] = Drug metabolism in C57BL/6J mouse brain assessed as mitragynine pseudoindoxyl formation at 30 mg/kg, po measured after 20 mins by LC-MS/MS analysis; format: ADME, organism-based; conditions: in vivo
# [24] = Drug metabolism in human liver microsomes assessed as compound depletion at 1 uM incubated for 60 mins in absence of NADPH by LC-MS/MS analysis; format: ADME, Microsome; conditions: 1 h
# [25] = Drug metabolism in C57BL/6J mouse plasma assessed as mitragynine pseudoindoxyl formation at 30 mg/kg, po measured after 20 mins by LC-MS/MS analysis; format: ADME, organism-based; conditions: in vivo
# [26] = Drug metabolism in human liver microsomes assessed as mitragynine pseudoindoxyl formation at 1 uM incubated for 60 mins in presence of NADPH by LC-MS/MS analysis; format: ADME, Microsome; conditions: 1 h
# [27] = Drug metabolism in C57BL/6J mouse liver microsomes assessed as 3-dehydromitragynine formation at 1 uM incubated for 60 mins by LC-MS/MS analysis; format: ADME, Microsome; conditions: 1 h
# [28] = Drug metabolism in human liver microsomes assessed as 3-dehydromitragynine formation at 1 uM incubated for 60 mins in presence of NADPH by LC-MS/MS analysis; format: ADME, Microsome; conditions: 1 h
# [29] = Drug metabolism in human liver microsomes assessed as mitragynine pseudoindoxyl formation at 1 uM incubated for 60 mins by LC-MS/MS analysis; format: ADME, Microsome; conditions: 1 h
# [30] = test system: Mus musculus; experiment: Antinociceptive activity in DOR knock out C57BL/6J mouse at 45 mg/kg, po measured after 20 mins; format: functional, organism-based
# [31] = Drug metabolism in human liver microsomes assessed as mitragynine pseudoindoxyl formation at 1 uM incubated for 60 mins in presence of ketoconazole by LC-MS/MS analysis; format: ADME, Microsome; conditions: 1 h
# [32] = test system: Mus musculus; experiment: Antinociceptive activity in DOR knock out 129Sv6 mouse at 10 mg/kg, po measured after 15 mins; format: functional, organism-based
# [33] = Drug metabolism in human S9 fractions assessed as 3-dehydromitragynine formation at 1 uM incubated for 60 mins in absence of NADPH by LC-MS/MS analysis; format: ADME, subcellular, S9 fraction; conditions: s9, 1 h
# [34] = Drug metabolism in human S9 fraction assessed as mitragynine pseudoindoxyl formation at 1 uM incubated for 60 mins in presence of NADPH by LC-MS/MS analysis; format: ADME, subcellular; conditions: s9, 1 h
# [35] = target: T1, Cytochrome P450 3A; experiment: Metabolic stability in C57BL/6J mouse liver microsomes assessed as CYP3A-mediated decomposition by measuring half life at 1 uM incubated for 60 mins in presence of ketoconazole by LC-MS/MS analysis; format: ADME, Microsome; conditions: 1 h
# [36] = Stability in 129Sv6 mouse liver microsomes assessed as half life at 1 uM incubated for 60 mins by LC-MS/MS analysis; format: ADME, Microsome; conditions: 1 h
# [37] = Toxicity in C57BL/6J mouse assessed as effect on locomotion at 20 mg/kg, po measured after 3 hrs; format: organism-based; conditions: in vivo
# [38] = Drug metabolism in 129Sv6 mouse liver microsomes assessed as 3-dehydromitragynine formation at 1 uM incubated for 60 mins by LC-MS/MS analysis; format: ADME, Microsome; conditions: 1 h
# [39] = test system: Mus musculus; experiment: Antinociceptive activity in sc dosed 129Sv6 mouse model assessed as peak effect measured at 15 mins by radiant heat tail flick assay; format: functional; conditions: 129Sv6, 0.25 h
smiles,measurement,setting,value
CC[C@@H]1CN2CCc3c([nH]c4cccc(OC)c34)[C@@H]2C[C@@H]1/C(=C\OC)C(=O)OC,Drug metabolism,[1],Metabolite_Notdetected
same,Drug metabolism,[2],0.037 µM
same,Time,[3],15 min
same,Drug metabolism,[4],Metabolite_Notdetected
same,Time,[5],15 min
same,Drug metabolism,[6],Metabolite_Detected
same,Time,[7],15 min
same,t1/2,[8],5.9 min
same,Drug metabolism,[9],Metabolite_Detected
same,Drug metabolism,[10],0.035 µM
same,Drug metabolism,[11],Metabolite_Detected
same,Drug metabolism,[12],0.028 µM
same,t1/2,[13],24.4 min
same,Drug metabolism,[14],Metabolite_Detected
same,t1/2,[15],7.5 min
same,concentration at 20 min,[16],6.63 µM
same,Drug metabolism,[17],Metabolite_Detected
same,Drug metabolism,[18],Metabolite_Detected
same,Drug metabolism,[19],Metabolite_Notdetected
same,Drug metabolism,[20],13 nM
same,Drug metabolism,[21],Metabolite_Detected
same,Activity,[22],inactive
same,Drug metabolism,[23],40 nM
same,Drug metabolism,[24],Metabolite_Notdetected
same,Drug metabolism,[25],20 nM
same,Drug metabolism,[26],Metabolite_Detected
same,Drug metabolism,[27],Metabolite_Detected
same,Drug metabolism,[28],Metabolite_Detected
same,Drug metabolism,[29],Metabolite_Detected
same,Activity,[30],Active
same,Drug metabolism,[31],Metabolite_Notdetected
same,Activity,[32],Active
same,Drug metabolism,[33],Metabolite_Detected
same,Drug metabolism,[34],Metabolite_Detected
same,t1/2,[35],35.8 min
same,t1/2,[36],13.5 min
same,Activity,[37],Non-Toxic
same,Drug metabolism,[38],Metabolite_Detected
same,ED50,[39],57.3 mg/kg
